The text below walks through data of publication PMC5908784, “Extracellular loops 2 and 3 of the calcitonin receptor selectively modify agonist binding and efficacy” (Biochemical Pharmacology, 2018).

Holding throughout (assay): cAMP accumulation
Holding throughout (type): cell-based
What all share (settings): cAMP maximal response, mean ± S.E.M., SEM
In general terms: Changes in cAMP serve as a functional read-out for many G protein-coupled receptors.

One assay deals with T1, hCTR S292A (Homo sapiens, UniProt P30988, S292A).
T1 construct: expressed in transfected cells
T1 sequence (P30988 25-474 S292A): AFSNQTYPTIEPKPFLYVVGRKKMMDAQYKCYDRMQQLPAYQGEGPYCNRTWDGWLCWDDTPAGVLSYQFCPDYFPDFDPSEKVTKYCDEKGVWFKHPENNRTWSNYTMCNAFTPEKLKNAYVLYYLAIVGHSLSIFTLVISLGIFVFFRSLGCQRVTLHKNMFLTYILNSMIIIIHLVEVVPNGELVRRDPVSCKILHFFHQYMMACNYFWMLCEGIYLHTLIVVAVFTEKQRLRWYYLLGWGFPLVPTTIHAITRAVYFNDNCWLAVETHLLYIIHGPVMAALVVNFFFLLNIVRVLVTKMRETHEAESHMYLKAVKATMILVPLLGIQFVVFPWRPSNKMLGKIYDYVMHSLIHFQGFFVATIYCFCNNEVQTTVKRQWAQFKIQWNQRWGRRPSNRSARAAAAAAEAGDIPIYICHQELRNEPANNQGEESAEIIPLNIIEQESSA
In a few lines:
(§1)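 30 min ligand stimulation with IBMX present; cells seeded overnight beforehand. Ethanol extract, dried at RT.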

Another assay has as its target T2, hCTR P363A (Homo sapiens, UniProt P30988, P363A).
T2 construct: expressed in transfected cells
T2 sequence (P30988 25-474 P363A): T1 sequence (P30988 25-474 S292A) with A268S, P339A
In a few lines:
as §1

The next assay addresses T3, hCTR V375A (Homo sapiens, UniProt P30988, V375A).
T3 construct: c-Myc (N); expressed in transfected cells
T3 sequence (P30988 25-474 V375A): T1 sequence (P30988 25-474 S292A) with A268S, V351A
In a few lines:
as §1

Another assay has as its target T4, hCTR M367A (Homo sapiens, UniProt P30988, M367A).
T4 construct: c-Myc (N); expressed in transfected cells
T4 sequence (P30988 25-474 M367A): T1 sequence (P30988 25-474 S292A) with A268S, M343A
In a few lines: as §1

For a further assay, the target named is T5, hCTR P360A (Homo sapiens, UniProt P30988, P360A).
T5 construct: expressed in transfected cells
T5 sequence (P30988 25-474 P360A): T1 sequence (P30988 25-474 S292A) with A268S, P336A
In a few lines: as §1

Positions count from the first letter of the chain named.

As for `CC(C)C[C@H](NC(=O)[C@H](CCCCN)NC(=O)CNC(=O)[C@H](CC(C)C)NC(=O)[C@@H](NC(=O)[C@@H]1CSSC[C@H](N)C(=O)N[C@@H](CO)C(=O)N[C@@H](CC(N)=O)C(=O)N[C@@H](CC(C)C)C(=O)N[C@@H](CO)C(=O)N[C@@H]([C@@H](C)O)C(=O)N1)C(C)C)C(=O)N[C@@H](CO)C(=O)N[C@@H](CCC(N)=O)C(=O)N[C@@H](CCC(=O)O)C(=O)N[C@@H](CC(C)C)C(=O)N[C@@H](Cc1c[nH]cn1)C(=O)N[C@@H](CCCCN)C(=O)N[C@@H](CC(C)C)C(=O)N[C@@H](CCC(N)=O)C(=O)N[C@H](C(=O)N[C@@H](Cc1ccc(O)cc1)C(=O)N1CCC[C@H]1C(=O)N[C@@H](CCCNC(=N)N)C(=O)N[C@H](C(=O)N[C@@H](CC(N)=O)C(=O)N[C@H](C(=O)NCC(=O)N[C@@H](CO)C(=O)NCC(=O)N[C@H](C(=O)N1CCC[C@H]1C(N)=O)[C@@H](C)O)[C@@H](C)O)[C@@H](C)O)[C@@H](C)O` [sCT], the Emax – broadly, the maximal effect, on the per cent scale that the assay sets – on hCTR S292A was found to be 119 ± 12%; at hCTR P363A it was 111 ± 9%; at hCTR V375A, 106 ± 5%; on hCTR M367A it was 79 ± 3%; at hCTR P360A it was 100 ± 5%.
